Test results from patent US9662338B2, “Formulations of viloxazine” (Supernus Pharmaceuticals, Inc., priority 2012, dated 2017).

Details: steady state plasma levels at both 150 mg and 300 mg total daily dose; IR capsules TID
Protocol: A randomized, double blind, multicenter, placebo controlled clinical study was conducted to evaluate the efficacy of viloxazine in adults with ADHD. […] Subjects not tolerating the 300 mg/day dose were allowed at any time of the treatment phase to down titrate to 1 capsule TID for a total daily dose of 150 mg viloxazine base. […] Plasma samples were obtained up to six hours following dosing.

In the case of `CCOc1ccccc1OCC1CNCCO1` (racemic) [viloxazine, (RS)-2-[(2-ethoxyphenoxy)methyl]morpholine], the “clinical efficacy in adults with ADHD” value is reported as “demonstrated clinical efficacy”.
